Reference: patent US20120220453A1, “PESTICIDAL COMPOSTIONS AND PROCESSES RELATED THERETO” (priority 2011, published 2012)
Where two headings read alike, the source gives them in different places.

Key:
Format in all cases: in vivo
[1] = system: Beet Armyworm (BAW) (Spodoptera exigua); assay: Bioassay on Beet Armyworm (BAW), 128-well diet tray assay; conditions: 120 h
Procedure: Certain molecules disclosed in this document were tested against BAW and CEW using procedures described in the following examples. In the reporting of the results, the “Table 3: BAW & CEW Rating Table” was used (See Table Section).
Bioassays on BAW (Spodoptera exigua)
Bioassays on BAW were conducted using a 128-well diet tray assay. […] Trays were covered with a clear self-adhesive cover, and held at 25° C., 14:10 light-dark for five days. Percent mortality was recorded for the larvae in each well; activity in the eight wells was then averaged. The results are indicated in the table entitled “Table 5: BAW, CEW, GPA, Scale and WF Results” (See Table Section).

[2] = system: Green Peach Aphid (GPA) (Myzus persicae); assay: Bioassay on Green Peach Aphid (GPA), foliar spray on cabbage seedlings; conditions: 72 h, 200 ppm foliar spray on cabbage seedlings, graded after three days, Abbott corrected % control, read-out: GPA @ 200 ppm, % Control (or Mortality) rating
Procedure: Certain molecules disclosed in this document were tested against GPA using procedures described in the following example. In the reporting of the results, the “Table 4: GPA, Scale and WF Rating Table” was used (See Table Section).
Cabbage seedlings grown in 3-inch pots, with 2-3 small (3-5 cm) true leaves, were used as test substrate. The seedlings were infested with 20-50 GPA (wingless adult and nymph stages) one day prior to chemical application. Four pots with individual seedlings were used for each treatment. Test compounds (2 mg) were dissolved in 2 mL of acetone/methanol (1:1) solvent, forming stock solutions of 1000 ppm test compound. The stock solutions were diluted 5× with 0.025% Tween 20 in H2O to obtain the solution at 200 ppm test compound. A hand-held aspirator-type sprayer was used for spraying a solution to both sides of […] leaves until runoff. Reference plants (solvent check) were sprayed with the diluent only containing 20% by volume of acetone/methanol (1:1) solvent. Treated plants were held in a holding room for three days at approximately 25° C. and ambient relative humidity (RH) prior to grading. Evaluation was conducted by counting the number of live aphids per plant under a microscope. Percent Control was measured by using Abbott's correction formula (W. S. Abbott, “A Method of Computing the Effectiveness of an Insecticide” J. Econ. Entomol. 18 (1925), pp. 265-267) as follows.
Corrected % Control=100*(X−Y)/X • where • X=No. of live aphids on solvent check plants and • Y=No. of live aphids on treated plants
(§1) The results are indicated in the table entitled “Table 5: BAW, CEW, GPA, Scale and WF Results” (See Table Section).

[3] = system: San Jose Scale (Quadraspidiotus perniciosus); assay: Bioassay on San Jose Scale, foliar spray on cotton plants; conditions: Diaspidiotus perniciosus, 216 h; 200 ppm foliar spray on cotton plants, live nymphs counted 9 days after infestation, Abbott corrected % control; read-out: Scale @ 200 ppm, % Control (or Mortality) rating
Procedure: Certain molecules disclosed in this document were tested against Scale using procedures described in the following example. In the reporting of the results, the “Table 4: GPA, Scale and WF Rating Table” was used (See Table Section).
Cotton plants (Gossypium hirsutum) grown in 3-inch pots, with 1 small (4-5 cm) true leaves, were used as test substrate. The plants were infested with 200-400 scale crawlers 1-2 hours after chemical application. Four pots with individual plants were used for each treatment. Test compounds (2 mg) were dissolved in 1 mL of acetone solvent, forming stock solutions of 2000 ppm test compound. The stock solutions were diluted 10× with 0.025% Tween 20 in H2O (diluents) to obtain the solution at 200 ppm test compound. A hand-held aspirator-type sprayer was used for spraying a solution to both sides of cotton leaves until runoff. Reference plants (solvent check) were sprayed with the diluent only containing 10% by volume of acetone solvent. Treated plants were held in a holding room for three days at approximately 25° C. and ambient relative humidity (RH) prior to grading. Evaluation was conducted by counting the number of live 2-3 nymphal stage per plant under a microscope 9 days after infestation. Percent Control was measured by using Abbott's correction formula (W. S. Abbott, “A Method of Computing the Effectiveness of an Insecticide” J. Econ. Entomol. 18 (1925), pp. 265-267) as follows.
Corrected % Control=100*(X−Y)/X • where • X=No. of live nymphs on solvent check plants and • Y=No. of live nymphs on treated plants
as §1

[4] = system: Sweet Potato Whitefly (WF) (Bemisia tabaci); assay: Bioassay on Sweet Potato Whitefly (WF), foliar spray on cotton plants; conditions: 216 h, 200 ppm foliar spray on cotton plants, graded after 9 days, Abbott corrected % control, read-out: WF @ 200 ppm, % Control (or Mortality) rating
Procedure: Certain molecules disclosed in this document were tested against WF using procedures described in the following example. In the reporting of the results, the “Table 4: GPA, Scale and WF Rating Table” was used (See Table Section).
Cotton plants (Gossypium hirsutum) grown in 3-inch pots, with 1 small (4-5 cm) true leaves, were used as test substrate. The plants were infested with 200-400 whitefly eggs 4-5 days prior to chemical application. Four pots with individual plants were used for each treatment. Test compounds (2 mg) were dissolved in 1 mL of acetone solvent, forming stock solutions of 2000 ppm test compound. The stock solutions were diluted 10× with 0.025% Tween 20 in H2O (diluents) to obtain the solution at 200 ppm test compound. A hand-held aspirator-type sprayer was used for spraying a solution to both sides of cotton leaves until runoff. Reference plants (solvent check) were sprayed with the diluent only containing 10% by volume of acetone solvent. Treated plants were held in a holding room for 9 days at approximately 25° C. and ambient relative humidity (RH) prior to grading. Evaluation was conducted by counting the number of live 3-4 nymphal stage per plant under a microscope. Percent Control was measured by using Abbott's correction formula (W. S. Abbott, “A Method of Computing the Effectiveness of an Insecticide” J. Econ. Entomol. 18 (1925), pp. 265-267) as follows.
Corrected % Control=100*(X−Y)/X • where • X=No. of live nymphs on solvent check plants and • Y=No. of live nymphs on treated plants.
as §1

[5] = second instar larvae on treated artificial diet, five days, 25° C., read-out: BAW, % Control (or Mortality) rating

| SMILES | mortality ([1]; 200 ppm, second instar larvae on treated artificial diet, five days, 25° C., read-out: BAW @ 200 ppm, % Control (or Mortality) rating) [%] | mortality at 200 ppm [2] [%] | mortality at 200 ppm [3] [%] | mortality ([1]; read-out: BAW, % Control (or Mortality) rating) [%] | mortality at 200 ppm [4] [%] | mortality [1, 5] [%] |
| --- | --- | --- | --- | --- | --- | --- |
| COc1cc(-c2cn(-c3cccnc3)nc2C)ncn1 [Compound 11] | 50 to 100 | 80 to 100 | 0 to 80 |  |  |  |
| FC(F)(F)c1cccc(-c2cnn(-c3cccnc3)c2)n1 [Compound 1, 2-(1-(pyridin-3-yl)-1H-pyrazol-4-yl)-6-(trifluoromethyl)pyridine] |  | 80 to 100 | 80 to 100 | 50 to 100 | 0 to 80 |  |
| Cc1nn(-c2cncc(F)c2)cc1-c1cccc(C(F)(F)F)n1 [Compound 3, 2-(1-(5-fluoropyridin-3-yl)-3-methyl-1H-pyrazol-4-yl)-6-(trifluoromethyl)pyridine] |  | 80 to 100 | 80 to 100 |  |  | 50 to 100 |
| COc1cccc(-c2cn(-c3cccnc3)nc2C)n1 [Compound 19] |  | 80 to 100 | 80 to 100 |  | 0 to 80 | 50 to 100 |
| Cc1nn(-c2cccnc2)cc1-c1ccc(C(F)(F)F)nc1 [Compound 29] |  | 80 to 100 | 80 to 100 |  | 80 to 100 | 50 to 100 |
| CSc1cccc(-c2cn(-c3cccnc3)nc2C)c1 [Compound 17, 3-(3-methyl-4-(3-(methylthio)phenyl)-1H-pyrazol-1-yl)pyridine] |  | 80 to 100 | 0 to 80 |  | 0 | 50 to 100 |
| Fc1cncc(-n2cc(-c3cccc(C(F)(F)F)n3)c(Cl)n2)c1 [Compound 7] |  | 80 to 100 | 80 to 100 |  |  | 50 to 100 |
| COc1cc(-c2cn(-c3cccnc3)nc2C)nc(OC)n1 [Compound 12] |  | 80 to 100 | 0 to 80 |  |  | 50 to 100 |
| Cc1nn(-c2cccnc2)cc1-c1ccc(C(F)(F)F)cn1 [Compound 21] |  | 80 to 100 | 80 to 100 |  | 80 to 100 | 50 to 100 |
| Cc1ncccc1-c1cn(-c2cccnc2)nc1C [Compound 28] |  | 80 to 100 | 80 to 100 |  | 0 to 80 | 50 to 100 |
| COc1ccnc(-c2cn(-c3cccnc3)nc2C)n1 [Compound 9] |  | 80 to 100 | 80 to 100 |  |  | 50 to 100 |
| Cc1ccc(-c2cn(-c3cccnc3)nc2C)cn1 [Compound 26] |  | 80 to 100 | 80 to 100 |  | 80 to 100 | 50 to 100 |
| Cc1nn(-c2cccnc2)cc1-c1cc(C(F)(F)F)ncn1 [Compound 10] |  | 80 to 100 | 80 to 100 |  |  | 50 to 100 |
| Cc1nn(-c2cccnc2)cc1-c1cccc(C(F)(F)F)n1 [Compound 4] |  | 80 to 100 | 80 to 100 |  |  | 50 to 100 |
| Cc1nccc(-c2cn(-c3cccnc3)nc2C)n1 [Compound 8] |  | 80 to 100 | 80 to 100 |  |  | 50 to 100 |
| Cc1nn(-c2cccnc2)cc1-c1cccnc1 [Compound 23] |  | 80 to 100 | 80 to 100 |  | 0 to 80 | 50 to 100 |
| FC(F)(F)c1ccc(-c2cnn(-c3cccnc3)c2)cn1 [Compound 2, 5-(1-(pyridin-3-yl)-1H-pyrazol-4-yl)-2-(trifluoromethyl)pyridine] |  | 80 to 100 | 0 |  |  | 50 to 100 |
| COc1ccc(-c2cn(-c3cccnc3)nc2C)cn1 [Compound 25] |  | 80 to 100 | 80 to 100 |  | 0 to 80 | 50 to 100 |
| Cc1cncc(-c2cn(-c3cccnc3)nc2C)c1 [Compound 27] |  | 80 to 100 | 0 to 80 |  | 80 to 100 | 50 to 100 |
| Cc1nn(-c2cccnc2)cc1-c1cc(C(F)(F)F)ccn1 [Compound 22] |  | 80 to 100 | 80 to 100 |  | 80 to 100 | 50 to 100 |
| CSc1nc(-c2cn(-c3cccnc3)nc2C)cc(C(F)(F)F)n1 [Compound 13] |  | 0 to 80 | 0 to 80 |  |  | 50 to 100 |
| Cc1nn(-c2cccnc2)cc1-c1ccnc(C(F)(F)F)n1 [Compound 5] |  | 80 to 100 | 80 to 100 |  |  | 50 to 100 |
| Cc1cc(-c2cn(-c3cccnc3)nc2C)ccn1 [Compound 30] |  | 80 to 100 | 0 to 80 |  | 0 to 80 | 50 to 100 |
